For one compound, pKa results are on record in patent US6620422B1, “Compositions containing a peptide and polylactic-glycolic acid suitable for preparing subcutaneous implants with an extended release period” (Mediolanum Farmaceutici S.p.A., priority 1998, dated 2003).

This series can be described thus: physchem.

Broadly, the pKa is the negative logarithm of the acid dissociation constant. Read a high pKa as a weaker acid or stronger base. Regarding `CCNC(=O)[C@@H]1CCCN1C(=O)[C@H](CCCNC(=N)N)NC(=O)[C@H](CC(C)C)NC(=O)[C@@H](Cc1c(C)[nH]c2ccccc12)NC(=O)[C@H](Cc1ccc(O)cc1)NC(=O)[C@H](CO)NC(=O)[C@H](Cc1c[nH]c2ccccc12)NC(=O)[C@H](Cc1c[nH]cn1)NC(=O)[C@@H]1CCC(=O)N1` [avoreline, 5-oxo-L-prolyl-L-histidil-L-tryptophil-L-seryl-L-tyrosil-2-methyl-D-tryptophil-L-leucyl-L-arginyl-N-ethyl-prolylamide], the pKa reads like this: (pKa) 9.7; (pKa (first value)) 6.15; (pKa (third printed value)) 12.
